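Briefly, cells in 96-well plates were exposed to five compound concentrations for 48 h, and endpoints were estimated by linear interpolation. TGI is the concentration that stops growth completely.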
What was measured:
Test in all cases: growth of human tumour cells (NCI), 48 h
786-0 renal = system: 786-0 renal
ACHN renal = system: ACHN renal
CAKI-1 renal = system: CAKI-1 renal
CCRF-CEM leukemia = system: CCRF-CEM leukemia
COLO 205 colon = system: COLO 205 colon
DLD-1 colon = system: DLD-1 colon
DMS 273 small cell lung = system: DMS 273 small cell lung
EKVX NSCLC = system: EKVX NSCLC
HCC-2998 colon = system: HCC-2998 colon
HCT-116 colon = system: HCT-116 colon
HL-60(TB) leukemia = system: HL-60(TB) leukemia
HOP-18 NSCLC = system: HOP-18 NSCLC
HOP-92 NSCLC = system: HOP-92 NSCLC
HT29 colon = system: HT29 colon
K-562 leukemia = system: K-562 leukemia
KM12 colon = system: KM12 colon
KM20L2 colon = system: KM20L2 colon
LOX IMVI melanoma = system: LOX IMVI melanoma
LXFL 529 NSCLC = system: LXFL 529 NSCLC
M14 melanoma = system: M14 melanoma
M19-MEL melanoma = system: M19-MEL melanoma
MALME-3M melanoma = system: MALME-3M melanoma
NCI-H226 lung = system: NCI-H226 lung
NCI-H23 lung = system: NCI-H23 lung
NCI-H522 lung = system: NCI-H522 lung
OVCAR-3 ovarian = system: OVCAR-3 ovarian
OVCAR-4 ovarian = system: OVCAR-4 ovarian
OVCAR-5 ovarian = system: OVCAR-5 ovarian
OVCAR-8 ovarian = system: OVCAR-8 ovarian
RPMI-8226 leukemia = system: RPMI-8226 leukemia
SF-268 CNS = system: SF-268 CNS
SF-295 CNS = system: SF-295 CNS
SK-MEL-2 melanoma = system: SK-MEL-2 melanoma
SK-MEL-5 melanoma = system: SK-MEL-5 melanoma
SN12C renal = system: SN12C renal
SW-620 colon = system: SW-620 colon
TK-10 renal = system: TK-10 renal
U251 CNS = system: U251 CNS
UACC-62 melanoma = system: UACC-62 melanoma
A498 renal = system: A498 renal
A549 NSCLC = system: A549 NSCLC
DMS 114 small cell lung = system: DMS 114 small cell lung
HCT-15 colon = system: HCT-15 colon
HOP-62 NSCLC = system: HOP-62 NSCLC
IGROV1 ovarian = system: IGROV1 ovarian
MOLT-4 leukemia = system: MOLT-4 leukemia
NCI-H460 lung = system: NCI-H460 lung
RXF 393 renal = system: RXF 393 renal
SF-539 CNS = system: SF-539 CNS
SK-MEL-28 melanoma = system: SK-MEL-28 melanoma
SNB-19 CNS = system: SNB-19 CNS
SNB-75 CNS = system: SNB-75 CNS
SNB-78 CNS = system: SNB-78 CNS
SR leukemia = system: SR leukemia
UACC-257 melanoma = system: UACC-257 melanoma
UO-31 renal = system: UO-31 renal
BT-549 breast = system: BT-549 breast
DU-145 prostate = system: DU-145 prostate
HS 578T breast = system: HS 578T breast
MCF7 breast = system: MCF7 breast
MDA-MB-231 breast = system: MDA-MB-231 breast
MDA-MB-435 = system: MDA-MB-435
MDA-N = system: MDA-N
NCI/ADR-RES ovarian = system: NCI/ADR-RES ovarian
PC-3 prostate = system: PC-3 prostate
SK-OV-3 ovarian = system: SK-OV-3 ovarian
T-47D breast = system: T-47D breast

C[C@@]12[Se]c3ccccc3[C@]1(C)[Se]c1ccccc12
TGI (786-0 renal): > 100 µM | TGI (ACHN renal): > 100 µM | TGI (CAKI-1 renal): > 100 µM | TGI (CCRF-CEM leukemia): > 100 µM | TGI (COLO 205 colon): > 100 µM | TGI (DLD-1 colon): > 100 µM | TGI (DMS 273 small cell lung): > 100 µM | TGI (EKVX NSCLC): > 100 µM | TGI (HCC-2998 colon): > 100 µM | TGI (HCT-116 colon): > 100 µM | TGI (HL-60(TB) leukemia): 8.4 µM | TGI (HOP-18 NSCLC): > 100 µM | TGI (HOP-92 NSCLC): > 100 µM | TGI (HT29 colon): > 100 µM | TGI (K-562 leukemia): > 100 µM | TGI (KM12 colon): > 100 µM | TGI (KM20L2 colon): > 100 µM | TGI (LOX IMVI melanoma): > 100 µM | TGI (LXFL 529 NSCLC): > 100 µM | TGI (M14 melanoma): > 100 µM | TGI (M19-MEL melanoma): > 100 µM | TGI (MALME-3M melanoma): > 100 µM | TGI (NCI-H226 lung): > 100 µM | TGI (NCI-H23 lung): > 100 µM | TGI (NCI-H522 lung): > 100 µM | TGI (OVCAR-3 ovarian): > 100 µM | TGI (OVCAR-4 ovarian): > 100 µM | TGI (OVCAR-5 ovarian): > 100 µM | TGI (OVCAR-8 ovarian): > 100 µM | TGI (RPMI-8226 leukemia): > 100 µM | TGI (SF-268 CNS): > 100 µM | TGI (SF-295 CNS): > 100 µM | TGI (SK-MEL-2 melanoma): > 100 µM | TGI (SK-MEL-5 melanoma): > 100 µM | TGI (SN12C renal): > 100 µM | TGI (SW-620 colon): > 100 µM | TGI (TK-10 renal): > 100 µM | TGI (U251 CNS): > 100 µM | TGI (UACC-62 melanoma): 7.18 µM

COC(=O)c1ccc(N/C=C(/C#N)c2ccsc2)cc1
TGI (786-0 renal): 23.3 µM | TGI (A498 renal): 15.7 µM | TGI (A549 NSCLC): 40.3 µM | TGI (ACHN renal): 18.8 µM | TGI (CAKI-1 renal): 30.5 µM | TGI (CCRF-CEM leukemia): > 100 µM | TGI (COLO 205 colon): > 100 µM | TGI (DLD-1 colon): > 100 µM | TGI (DMS 114 small cell lung): 43.8 µM | TGI (DMS 273 small cell lung): 37.4 µM | TGI (EKVX NSCLC): 31.4 µM | TGI (HCC-2998 colon): 44.5 µM | TGI (HCT-116 colon): 21.8 µM | TGI (HCT-15 colon): > 100 µM | TGI (HL-60(TB) leukemia): > 100 µM | TGI (HOP-62 NSCLC): 28.2 µM | TGI (HT29 colon): 25.3 µM | TGI (IGROV1 ovarian): 65.2 µM | TGI (K-562 leukemia): > 100 µM | TGI (KM12 colon): 32.2 µM | TGI (KM20L2 colon): 28.1 µM | TGI (LXFL 529 NSCLC): 37.5 µM | TGI (M19-MEL melanoma): > 100 µM | TGI (MALME-3M melanoma): 36.2 µM | TGI (MOLT-4 leukemia): > 100 µM | TGI (NCI-H226 lung): 39 µM | TGI (NCI-H23 lung): 24.5 µM | TGI (NCI-H460 lung): > 100 µM | TGI (OVCAR-3 ovarian): 23.1 µM | TGI (OVCAR-5 ovarian): > 100 µM | TGI (OVCAR-8 ovarian): 19.5 µM | TGI (RPMI-8226 leukemia): > 100 µM | TGI (RXF 393 renal): 23.9 µM | TGI (SF-268 CNS): 37 µM | TGI (SF-295 CNS): 19.9 µM | TGI (SF-539 CNS): 32.3 µM | TGI (SK-MEL-2 melanoma): 50.7 µM | TGI (SK-MEL-28 melanoma): 45.6 µM | TGI (SNB-19 CNS): 29.8 µM | TGI (SNB-75 CNS): 18.9 µM | TGI (SNB-78 CNS): 43.4 µM | TGI (SR leukemia): > 100 µM | TGI (SW-620 colon): 54.7 µM | TGI (TK-10 renal): 30.7 µM | TGI (U251 CNS): 20.3 µM | TGI (UACC-257 melanoma): > 100 µM | TGI (UACC-62 melanoma): 60.5 µM | TGI (UO-31 renal): 32.5 µM

O=C(NN1CCCCC1)c1cc2cc(CCl)ccc2oc1=O
TGI (786-0 renal): 32 µM | TGI (A498 renal): > 100 µM | TGI (A549 NSCLC): 48.5 µM | TGI (ACHN renal): > 100 µM | TGI (BT-549 breast): 38 µM | TGI (CAKI-1 renal): 33.3 µM | TGI (CCRF-CEM leukemia): 67.5 µM | TGI (COLO 205 colon): 36 µM | TGI (DU-145 prostate): > 100 µM | TGI (EKVX NSCLC): 27.4 µM | TGI (HCC-2998 colon): 27.1 µM | TGI (HCT-116 colon): 38 µM | TGI (HCT-15 colon): 39.9 µM | TGI (HL-60(TB) leukemia): 37.7 µM | TGI (HOP-62 NSCLC): 40.5 µM | TGI (HOP-92 NSCLC): 22.9 µM | TGI (HS 578T breast): 36.4 µM | TGI (HT29 colon): 33 µM | TGI (IGROV1 ovarian): 42.7 µM | TGI (K-562 leukemia): 48.1 µM | TGI (KM12 colon): 49.4 µM | TGI (LOX IMVI melanoma): 35.9 µM | TGI (M14 melanoma): 49.4 µM | TGI (MALME-3M melanoma): 24.8 µM | TGI (MCF7 breast): > 100 µM | TGI (MDA-MB-231 breast): 38.6 µM | TGI (MDA-MB-435): 42.1 µM | TGI (MDA-N): 33.4 µM | TGI (MOLT-4 leukemia): 65.5 µM | TGI (NCI-H226 lung): 45.3 µM | TGI (NCI-H23 lung): 32.5 µM | TGI (NCI-H460 lung): 31.1 µM | TGI (NCI-H522 lung): 22.7 µM | TGI (NCI/ADR-RES ovarian): 54.2 µM | TGI (OVCAR-3 ovarian): 39.3 µM | TGI (OVCAR-4 ovarian): 36.4 µM | TGI (OVCAR-5 ovarian): 31.8 µM | TGI (OVCAR-8 ovarian): 54.8 µM | TGI (PC-3 prostate): 30.4 µM | TGI (RPMI-8226 leukemia): 59 µM | TGI (RXF 393 renal): 34.4 µM | TGI (SF-268 CNS): 32.9 µM | TGI (SF-295 CNS): 42 µM | TGI (SF-539 CNS): > 100 µM | TGI (SK-MEL-2 melanoma): 28.9 µM | TGI (SK-MEL-28 melanoma): > 100 µM | TGI (SK-MEL-5 melanoma): 33.7 µM | TGI (SK-OV-3 ovarian): 42.6 µM | TGI (SN12C renal): 38.7 µM | TGI (SNB-19 CNS): 65.2 µM | TGI (SNB-75 CNS): 34.9 µM | TGI (SR leukemia): 67.8 µM | TGI (SW-620 colon): 60.7 µM | TGI (T-47D breast): 48.7 µM | TGI (TK-10 renal): 35.5 µM | TGI (U251 CNS): 31.6 µM | TGI (UACC-257 melanoma): 59.1 µM | TGI (UACC-62 melanoma): 85.8 µM | TGI (UO-31 renal): 35.3 µM
